This note sets out measurements from ChEMBL document CHEMBL1201862, “PubChem BioAssay data set” (2004).

SMILES strings stand for the structures. Several values for one entry are separate records, joined by “and”; a condition that tells them apart may be missing. Equal values may be shown once.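 Values below derive from 48-hour exposures of cells grown in 96-well plates, with endpoints linearly interpolated between the two concentrations bracketing the appropriate inhibition level. The concentration for 50% growth inhibition is given as GI50.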 Activity calls are given as the source filed them. Cut-off read from the data, not from the text of the source: active = GI50 up to about 1.1 µM and inactive = higher.

Holding throughout (test): NCI anticancer screen, dose series, 48 h
Assay [1] has as its system OVCAR-3.
The subject of assay [2] is SNB-75.
In assay [3] the test system is HT-29.
Assay [4] concerns KM12.
In assay [5] the test system is ACHN.
For assay [6], the system named is SF-295.
Assay [7] has as its system DU-145.
The test system of assay [8] is NCI-H226.
For assay [9], the system named is HOP-92.
Assay [10] relates to SR.
Assay [11] concerns HCT-116.
Assay [12] relates to MCF7.
In assay [13] the test system is SK-MEL-5.
Assay [14] has as its system OVCAR-5.
Assay [15] deals with SF-539.
The subject of assay [16] is EKVX.
Assay [17] deals with TK-10.
Assay [18] concerns NCI-H460.
Assay [19] deals with UACC-257.
The test system of assay [20] is HCC 2998.

As to `NC(=O)C1CCCNC1` (stereo not given), the GI50 in assay [1], in assay [2], in [3], in assay [4], in assay [5] and in assay [6] was > 100 µM (inactive) in each case. Moreover, the GI50 in [7], in [8], in assay [9], in assay [10], in assay [11] and in [12] was > 100 µM (inactive) each time. In addition, the GI50 in assay [13], in [14], in assay [15], in assay [16], in [17] and in assay [18] was > 100 µM (inactive) each time.

As to `Cc1cc(C)nc(NC(=O)COc2ccc(Cl)cc2)c1`, the GI50 was > 100 µM (inactive) in assay [1]; > 100 µM (inactive) in [2]; > 100 µM (inactive) in assay [3]; > 100 µM (inactive) in assay [4]; > 100 µM (inactive) in assay [5]; 84.9 µM (inactive) in assay [6]. Besides, the GI50 was > 100 µM (inactive) in [7]; > 100 µM (inactive) in assay [8]; > 100 µM (inactive) in assay [9]; > 100 µM (inactive) in [10]; > 100 µM (inactive) in [11]; 85.7 µM (inactive) in assay [12]. Further, the GI50 in [13], in [19], in assay [14], in [15], in assay [16] and in assay [17] was > 100 µM (inactive) in each case. The GI50 in [18] is > 100 µM (inactive).

On to `N#Cc1c(N)n(C2OC(CO)C(O)C2O)c2ncnc(N)c12` (stereo not given), for which the GI50 in assay [1] was 0.029 µM (active); in assay [2], 0.0798 µM (active); in assay [3], 0.0288 µM (active); in assay [4], 0.0417 µM (active); in assay [5] it was 0.0312 µM (active); in [6], 0.0711 µM (active). Also, the GI50 in assay [7] is 0.112 µM (active); in assay [8], 0.0684 µM (active); in [9] it was 0.136 µM (active); in [10] it was 0.0147 µM (active); in [11], 0.0195 µM (active); in [12] it was 0.0168 µM (active). The GI50 is 0.0653 µM (active) in assay [13]; 0.091 µM (active) in [19]; 0.0541 µM (active) in [14]; 0.118 µM (active) in [15]; 0.135 µM (active) in assay [16]; 0.0211 µM (active) in assay [17]. Moreover, the GI50 in assay [18] was 0.288 µM (active).

In the case of `NS(=O)(=O)c1ccc(Nc2c3ccccc3nc3c(C(=O)NCCCN(CCO)CCO)cccc23)cc1`, the GI50 was 24.3 µM (inactive) in assay [1]; 25.6 µM (inactive) in [3]; 16.7 µM (inactive) in [4]; 37.2 µM (inactive) in assay [5]; 36.2 µM (inactive) in [6]; 29.9 µM (inactive) in assay [7]. Also, the GI50 in [9] is 26.3 µM (inactive); in assay [10], 12.8 µM (inactive); in [12], 4.8 µM (inactive); in [13], 14.8 µM (inactive); in [19], 31 µM (inactive); in [14], 24.1 µM (inactive). For the same compound, the GI50 in assay [20] was 17.7 µM (inactive); in [16], 61.5 µM (inactive); in [17] it was 36.6 µM (inactive); in assay [18], 15.7 µM (inactive).

Regarding `COc1cc(C(c2cccc3ccccc23)N2C(=O)CCC2C(=O)O)cc(OC)c1OC` (stereo not given), the GI50 in [1], in assay [2], in assay [3], in assay [4], in [5] and in assay [6] was > 100 µM (inactive) throughout. Further, the GI50 in assay [7], in assay [8], in assay [9], in assay [10], in assay [11] and in [12] was > 100 µM (inactive) throughout. The GI50 in assay [13], in assay [19], in [14], in assay [15], in assay [16] and in assay [18] was > 100 µM (inactive) each time.

For `CNC1(C(=O)O)CC1`, the GI50 in assay [1], in assay [3], in assay [4], in [5], in [6] and in assay [7] was > 100 µM (inactive) throughout. Besides, the GI50 in assay [8], in assay [9], in [10], in assay [11], in assay [12] and in assay [13] was > 100 µM (inactive) each time. In addition, the GI50 in assay [19], in assay [14], in assay [15], in assay [20], in assay [16] and in [17] was > 100 µM (inactive) in each case. Also, the GI50 in assay [18] was > 100 µM (inactive).

For `O=C1c2c(ccc3c2CCCC3)CC12Cc1ccc3c(c1C2=O)CCCC3`, the GI50 in [1], in [2], in assay [3], in [5], in assay [6] and in assay [7] was > 100 µM (inactive) each time. The GI50 in assay [9] is 60.7 µM (inactive); in assay [10], > 100 µM (inactive); in assay [11], 77.4 µM (inactive); in assay [12], > 100 µM (inactive); in assay [13] it was > 100 µM (inactive); in [19] it was > 100 µM (inactive). The GI50 in [14], in [15], in assay [20], in assay [16], in [17] and in assay [18] was > 100 µM (inactive) in each case.

For the compound `CC(=O)OC(/C=C/c1ccccc1)P1(=O)N(CC(C)(C)C)[C@@H]2CCCC[C@H]2N1CC(C)(C)C` (stereo not given in full), the GI50 in assay [3] is 4.25 µM (inactive) and 3.89 µM (inactive); in assay [4], 6.3 µM (inactive) and 6.65 µM (inactive); in assay [5], 10 µM (inactive) and 7.57 µM (inactive); in assay [6], 5.87 µM (inactive) and 3.86 µM (inactive); in [7], 10.4 µM (inactive) and 9.75 µM (inactive); in assay [8], 6.87 µM (inactive) and 10.9 µM (inactive). For the same compound, the GI50 in [9] was 12 µM (inactive); in assay [10] it was 2.92 µM (inactive) and 4.02 µM (inactive); in assay [11], 4.14 µM (inactive) and 3.53 µM (inactive); in assay [12], 4.79 µM (inactive) and 4.61 µM (inactive); in assay [13] it was 5.26 µM (inactive) and 6.3 µM (inactive); in assay [19] it was 4.07 µM (inactive) and 3.3 µM (inactive). For the same compound, the GI50 in assay [14] is 10.7 µM (inactive) and 9.86 µM (inactive); in [15], 8.11 µM (inactive) and 13.6 µM (inactive); in [20], 5 µM (inactive) and 2.77 µM (inactive); in assay [16] it was 5.27 µM (inactive) and 5.68 µM (inactive); in assay [18], 6.24 µM (inactive) and 4.84 µM (inactive).

For the compound `O=C1CC[C@@]2(O)[C@H]3Cc4ccc(-c5ccccc5)c5c4[C@@]2(CCN3CC2CC2)[C@H]1O5`, the GI50 in assay [1] was 18.1 µM (inactive); in assay [3], 13.7 µM (inactive); in [4] it was 18.9 µM (inactive); in assay [5], 20.6 µM (inactive); in [6] it was 19.2 µM (inactive); in assay [7], 23.3 µM (inactive). Moreover, the GI50 in [8] was 20.3 µM (inactive); in assay [9], 16.2 µM (inactive); in [10], 25.9 µM (inactive); in assay [11], 16.9 µM (inactive); in assay [12] it was 18.2 µM (inactive); in assay [13], 14.2 µM (inactive). For the same compound, the GI50 in assay [19] was 16 µM (inactive); in assay [14] it was 17.2 µM (inactive); in assay [15], 16.8 µM (inactive); in [20] it was 18.4 µM (inactive); in assay [16] it was 19.6 µM (inactive); in assay [17], 17.6 µM (inactive). The GI50 in [18] is 17.9 µM (inactive).

Consider `CC(C)(C)NC(=O)C12C3C4C1C1C2C3C41C(=O)NC(C)(C)C` (stereo not given), for which the GI50 was > 100 µM (inactive) in assay [1]; > 100 µM (inactive) in assay [3]; > 100 µM (inactive) in assay [4]; > 100 µM (inactive) in [5]; 80 µM (inactive) in assay [6]; > 100 µM (inactive) in assay [7]. Besides, the GI50 is 15.1 µM (inactive) in assay [9]; 45.6 µM (inactive) in [10]; > 100 µM (inactive) in [11]; > 100 µM (inactive) in assay [12]; > 100 µM (inactive) in [13]; > 100 µM (inactive) in assay [19]. The GI50 in [14], in [15], in assay [20], in [16], in [17] and in assay [18] was > 100 µM (inactive) in each case.

For the compound `O=C(O)Cc1ccc(Nc2nc3cc(C(F)(F)F)ccc3nc2C(=O)O)cc1`, the GI50 in assay [1], in [2], in assay [3], in assay [4], in assay [5] and in assay [6] was > 100 µM (inactive) in each case. The GI50 in assay [7] was > 100 µM (inactive); in [8] it was > 100 µM (inactive); in assay [9] it was > 100 µM (inactive); in assay [10] it was < 0.01 µM (active); in assay [11] it was > 100 µM (inactive); in assay [12], > 100 µM (inactive). The GI50 in assay [13], in assay [19], in assay [14], in assay [15], in assay [16] and in [17] was > 100 µM (inactive) each time. Besides, the GI50 in assay [18] is > 100 µM (inactive).
